Like-named read-outs stand apart in the source and are kept apart here.
What was measured:
[1] = ABTS free radicals scavenging assay; details: for ABTS Assay % Scavenging (mean ± SEM): n = 3
Experimental: Plant crude samples were also evaluated against ABTS free radicals using standard protocol. In this protocols, 7 mM solution of ABTS and 2.45 mM of potassium per sulfate were mixed and kept in dark at laboratory temperature for around 16 h till the color become dark. Solution of 0.01 M of phosphate buffer having pH 7.40 was mixed with it and absorbance was adjusted at 0.70 at 734 nm. Afterwards, solution of the plant extracts (300 μl) was added to ABTS solution (3 mL) and absorbance was recorded at 734 nm. Mixed the solution for 1 min and reduction in absorbance was recorded. The mixing and reduction were repeated for 6 min. The experiments were performed three times. The percent inhibitions and subsequent IC50 values of samples and standard ascorbic acid were calculated as per the standard procedure.

[2] = H2O2 free radicals scavenging assay; details: n = 3
Experimental: This method was used to determine the antioxidant potentials of crude extracts from N. thomsonianum. A solution of H2O2 (2 mM) was prepared in buffer solution of phosphate (50 mM, pH 7.40). In a test tube, 0.10 mL of crude extract was measured, and the volume was diluted to 0.40 mL by adding the phosphate buffer. Then 0.60 mL solution of H2O2 was added to it and was mixed properly. The absorbance of the crude sample and standard were recorded on 230 nm. The same procedure was repeated for all the crude samples.

[3] = DPPH free radicals scavenging assay; details: for DPPH Assay % Scavenging (mean ± SEM) / DPPH Percent Inhibition (mean ± SEM): n = 3
Experimental: Plant samples solutions were prepared ranging from 125 to 1000 μg/ mL and were added to 0.004% methanolic solution of DPPH. Subsequent to 30 min incubation, absorbances were measured at 517 nm.
In free radicals’ assays including DPPH, ABTS and H2O2, the IC50s were calculated using same method.

[4] = molecular target: Yeast α-Glucosidase (Saccharomyces cerevisiae, UniProt P53341); test: biochemical; details: for IC50: α-Glucosidase IC50, Table 3, isolated compounds series
Experimental: In 0.10 M of phosphate buffer having pH of 6.90, the α-glucosidase enzyme solution was prepared (0.50 U/ mL). […] The same solution without the enzyme was used as a blank. The absorbances were recorded at 405 nm. All the experiments were repeated in triplicate. The percent inhibitions and subsequent IC50 (in μg/mL and also in μM) were calculated accordingly. […]

[5] = molecular target: T1, α-amylase (Homo sapiens, UniProt P04746); test: In-vitro α-amylase inhibition; format: biochemical; details: for IC50: Table 3, isolated compounds series
T1 sequence (P04746 16-511): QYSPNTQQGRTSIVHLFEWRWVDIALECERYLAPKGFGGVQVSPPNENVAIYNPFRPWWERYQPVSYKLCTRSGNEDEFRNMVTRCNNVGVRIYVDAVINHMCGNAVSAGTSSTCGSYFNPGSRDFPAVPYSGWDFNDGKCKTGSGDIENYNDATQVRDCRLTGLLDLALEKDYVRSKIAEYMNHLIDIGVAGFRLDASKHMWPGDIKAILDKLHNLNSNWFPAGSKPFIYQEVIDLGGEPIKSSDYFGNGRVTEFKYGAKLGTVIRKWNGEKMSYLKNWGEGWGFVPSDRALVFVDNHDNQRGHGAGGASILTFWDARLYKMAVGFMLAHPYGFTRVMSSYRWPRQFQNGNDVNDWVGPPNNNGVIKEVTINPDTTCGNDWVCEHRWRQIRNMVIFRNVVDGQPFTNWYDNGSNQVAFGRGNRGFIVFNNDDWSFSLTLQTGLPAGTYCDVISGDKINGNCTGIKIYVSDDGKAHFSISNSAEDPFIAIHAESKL
Experimental: The amylase solution was prepared in phosphate buffer followed by addition of different concentrations of plant extracts and isolated compounds. The solutions of test samples in enzyme solution were allowed to react. The solutions were incubated for a specific temperature and were added starch solution. Afterwards, a solution of dinitrosalicylic acid was added to both of the groups, i.e. sample and control solution groups. The solutions were then allowed to heat up in boiling water for a few min. […] The experiments were performed in triplicates and percent inhibitions were calculated as per the reported formula. […]

[6] = molecular target: T2, PTP1B (Homo sapiens, UniProt P18031); test: Protein tyrosine phosphatase 1B inhibition; format: biochemical
T2 sequence (P18031 1-435): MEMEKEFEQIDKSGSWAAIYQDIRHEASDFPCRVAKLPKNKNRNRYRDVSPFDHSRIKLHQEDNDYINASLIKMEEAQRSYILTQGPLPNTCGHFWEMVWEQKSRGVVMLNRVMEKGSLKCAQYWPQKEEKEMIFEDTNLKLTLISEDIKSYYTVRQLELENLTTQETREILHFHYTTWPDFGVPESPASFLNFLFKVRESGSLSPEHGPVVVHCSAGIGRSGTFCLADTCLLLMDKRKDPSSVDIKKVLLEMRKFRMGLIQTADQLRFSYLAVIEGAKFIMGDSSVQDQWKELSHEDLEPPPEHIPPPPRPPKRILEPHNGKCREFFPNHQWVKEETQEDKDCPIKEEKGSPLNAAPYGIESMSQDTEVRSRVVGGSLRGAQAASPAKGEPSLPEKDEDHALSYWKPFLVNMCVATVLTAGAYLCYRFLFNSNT
Experimental: The solutions were then incubated for 40 min at 27 °C and absorbances were recorded at 405 nm using microplate reader. The experiments were repeated three times and percent inhibitions followed by IC50 values were recorded accordingly.

[7] = read-out: Alpha glucosidase Percent Inhibition (mean ± SEM)
[8] = read-out: α-Glucosidase Percent Inhibition (mean ± SEM)
[9] = read-out: Alpha amylase Percent Inhibition (mean ± SEM)
[10] = read-out: α-Amylase Percent Inhibition (mean ± SEM)
[11] = 125 μg/mL, n = 3, read-out: PTP1B Percent Inhibition (mean ± SEM) (converted)
[12] = 250 μg/mL, n = 3, read-out: PTP1B Percent Inhibition (mean ± SEM) (converted)
[13] = 500 μg/mL, n = 3, read-out: PTP1B Percent Inhibition (mean ± SEM)
[14] = Table 3, 125 μg/mL, n = 3, read-out: α-Amylase Percent Inhibition (mean ± SEM) (converted)
[15] = Table 3, 250 μg/mL, n = 3, read-out: α-Amylase Percent Inhibition (mean ± SEM) (converted)
[16] = Table 3, 500 μg/mL, n = 3, read-out: α-Amylase Percent Inhibition (mean ± SEM)
[17] = read-out: PTP1B Percent Inhibition (mean ± SEM)

Yeast α-Glucosidase, sequence (P53341 whole entry): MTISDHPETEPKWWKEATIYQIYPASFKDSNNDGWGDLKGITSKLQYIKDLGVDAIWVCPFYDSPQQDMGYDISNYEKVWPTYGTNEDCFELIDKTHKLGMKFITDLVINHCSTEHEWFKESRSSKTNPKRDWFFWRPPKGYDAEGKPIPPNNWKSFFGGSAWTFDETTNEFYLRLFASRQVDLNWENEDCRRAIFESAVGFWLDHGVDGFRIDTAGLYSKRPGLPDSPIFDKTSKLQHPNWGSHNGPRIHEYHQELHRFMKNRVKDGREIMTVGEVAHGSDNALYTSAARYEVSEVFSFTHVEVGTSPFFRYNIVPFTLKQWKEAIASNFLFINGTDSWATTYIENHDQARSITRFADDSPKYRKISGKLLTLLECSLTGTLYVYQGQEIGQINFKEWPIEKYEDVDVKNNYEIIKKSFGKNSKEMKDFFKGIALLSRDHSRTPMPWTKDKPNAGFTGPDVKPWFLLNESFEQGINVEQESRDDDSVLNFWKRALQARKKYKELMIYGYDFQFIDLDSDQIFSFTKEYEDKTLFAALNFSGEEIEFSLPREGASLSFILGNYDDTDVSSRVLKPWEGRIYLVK

Row | Compound | DPPH Percent Inhibition (mean ± SEM) ([3]; Table 4, 125 μg/mL) | DPPH Percent Inhibition (mean ± SEM) ([3]; Table 4, 250 μg/mL) | DPPH Percent Inhibition (mean ± SEM) ([3]; Table 4, 500 μg/mL) | inhibition at 125 µg/mL [4, 8] | inhibition at 250 µg/mL [4, 8] | inhibition at 500 µg/mL [4, 8] | inhibition at 125 µg/mL [5, 10] | inhibition at 250 µg/mL [5, 10] | inhibition at 500 µg/mL [5, 10] | IC50 [6] | inhibition at 125 µg/mL [6, 11] | inhibition at 250 µg/mL [6, 12] | inhibition at 500 µg/mL [6, 13] | IC50 ([6]; based on molecular weight) | inhibition at 125 µg/mL [5, 14] | inhibition at 250 µg/mL [5, 15] | inhibition at 500 µg/mL [5, 16] | IC50 [5] | IC50 ([5]; based on molecular weight) | IC50 [4] | other results
1 | O=C1O[C@H]([C@@H](O)CO)C(O)=C1O [AA, Ascorbic acid] | 85.20 ± 0.49% | 88.47 ± 0.71% | 91.75 ± 0.42% | – | – | – | – | – | – | – | – | – | – | – | – | – | – | – | – | – | ABTS Assay IC50 [1]: < 0.1 µg/mL; ABTS Assay % Scavenging (mean ± SEM) ([1]; 125 μg/mL): 78.46 ± 0.58%; ABTS Assay % Scavenging (mean ± SEM) ([1]; 250 μg/mL): 80.43 ± 0.55%; ABTS Assay % Scavenging (mean ± SEM) ([1]; 500 μg/mL): 86.53 ± 0.60%; ABTS Assay % Scavenging (mean ± SEM) ([1]; 1000 μg/mL): 87.60 ± 0.40%; H2O2 Assay % Scavenging (mean ± SEM) ([2]; 125 μg/mL): 68.00 ± 0.57%; H2O2 Assay % Scavenging (mean ± SEM) ([2]; 250 μg/mL): 71.50 ± 0.60%; H2O2 Assay % Scavenging (mean ± SEM) ([2]; 500 μg/mL): 74.66 ± 0.49%; H2O2 Assay % Scavenging (mean ± SEM) ([2]; 1000 μg/mL): 83.33 ± 0.88%; DPPH Assay % Scavenging (mean ± SEM) ([3]; Table 2, 125 μg/mL): 76.54 ± 0.54%; DPPH Assay % Scavenging (mean ± SEM) ([3]; Table 2, 250 μg/mL): 81.33 ± 0.88%; DPPH Assay % Scavenging (mean ± SEM) ([3]; Table 2, 500 μg/mL): 87.84 ± 0.26%; DPPH Assay % Scavenging (mean ± SEM) ([3]; Table 2, 1000 μg/mL): 92.55 ± 0.35%; DPPH Assay IC50 ([3]; Table 2, crude extracts series): < 0.1 µg/mL
2 | C[C@H]1O[C@H](O[C@H]2[C@H](O)[C@@H](O)[C@@H](O[C@H]3[C@H](O)[C@@H](O)C(O)O[C@@H]3CO)O[C@@H]2CO)[C@H](O)[C@@H](O)[C@@H]1N[C@H]1C=C(CO)[C@@H](O)[C@H](O)[C@H]1O (some centres unmarked) [Acarbose, reference compound] | – | – | – | 77.6% | 82.4% | 87.08 ± 0.47% | 83.9% | 89.5% | 95.23 ± 0.22% | – | – | – | – | – | – | – | – | – | – | – | inhibition at 125 µg/mL [4, 7]: 61.5%; inhibition at 250 µg/mL [4, 7]: 67.5%; inhibition at 500 µg/mL [4, 7]: 73.9%; inhibition at 1000 µg/mL [4, 7]: 76.87 ± 0.06%; inhibition at 125 µg/mL [5, 9]: 64.5%; inhibition at 250 µg/mL [5, 9]: 69%; inhibition at 500 µg/mL [5, 9]: 71.7%; inhibition at 1000 µg/mL [5, 9]: 78.63 ± 0.54%
3 | CC(C)=CC(=O)CC(C)c1ccc(C)cc1 (centres unmarked) [Nt01] | 79.62 ± 0.03% | 84.36 ± 1.15% | 88.35 ± 0.89% | 44.4% | 51.9% | 55.6 ± 1.06% | – | – | – | < 144 µM | 83.4% | 88.7% | 90.09 ± 0.32% | < 145 µM | 67.9% | 72.1% | 77.8 ± 2.24% | < 144 µM | < 145 µM | – | –
4 | CCCC/C=C/C=O [Nt02] | 74.78 ± 0.44% | 79.32 ± 0.40% | 86.60 ± 0.00% | 66.9% | 71.1% | 76.8 ± 2.24% | 78.4% | 85.3% | 91.36 ± 0.49% | < 279 µM | – | – | – | < 279 µM | – | – | – | < 279 µM | < 279 µM | < 279 µM | inhibition at 125 µg/mL [6, 17]: 85.8%; inhibition at 250 µg/mL [6, 17]: 90.9%; inhibition at 500 µg/mL [6, 17]: 93.03 ± 0.48%; IC50 ([4]; based on molecular weight): < 279 µM
5 | Cc1c(C)c2c(c(C)c1O)CCC(C)(CCCC(C)CCCC(C)CCCC(C)C)O2 (centres unmarked) [Nt03] | 84.44 ± 0.15% | 87.14 ± 0.49% | 90.69 ± 0.14% | 70.6% | 73.4% | 78.35 ± 0.23% | – | – | – | < 72.6 µM | 82.3% | 87.2% | 90.83 ± 0.47% | < 72.7 µM | 80.6% | 86.5% | 93.1 ± 1.04% | < 72.6 µM | < 72.7 µM | < 72.6 µM | IC50 ([4]; based on molecular weight): < 72.7 µM
6 | C[C@H]1[C@H](C)CC[C@]2(C(=O)O)CC[C@]3(C)C(=CC[C@@H]4[C@@]5(C)CC[C@H](O)C(C)(C)[C@@H]5CC[C@]43C)[C@H]12 [Ursolic acid, reference compound] | – | – | – | – | – | – | – | – | – | – | 91.5% | 93.6% | 98.7 ± 1.32% | – | – | – | – | – | – | – | –
